Data: PubChem BioAssay (NCI)
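Results reflect a 48-hour exposure of cells in 96-well plates to compound at five concentrations. Here, GI50 denotes the concentration required for 50% inhibition of growth. TGI: total growth inhibition.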

What was measured:
Test in all cases: growth of human tumour cells (NCI), 48 h
NCI-H23 lung = system: NCI-H23 lung
MDA-MB-468 breast = system: MDA-MB-468 breast
SK-MEL-5 melanoma = system: SK-MEL-5 melanoma
BT-549 breast = system: BT-549 breast
KM12 colon = system: KM12 colon
SNB-19 CNS = system: SNB-19 CNS
SN12C renal = system: SN12C renal
MALME-3M melanoma = system: MALME-3M melanoma
MDA-MB-231 breast = system: MDA-MB-231 breast
TK-10 renal = system: TK-10 renal
LOX IMVI melanoma = system: LOX IMVI melanoma
IGROV1 ovarian = system: IGROV1 ovarian
SF-268 CNS = system: SF-268 CNS
T-47D breast = system: T-47D breast
NCI-H226 lung = system: NCI-H226 lung
NCI-H460 lung = system: NCI-H460 lung
CCRF-CEM leukemia = system: CCRF-CEM leukemia
A549 NSCLC = system: A549 NSCLC
SK-OV-3 ovarian = system: SK-OV-3 ovarian
NCI-H522 lung = system: NCI-H522 lung
SF-539 CNS = system: SF-539 CNS
RXF 393 renal = system: RXF 393 renal
SK-MEL-2 melanoma = system: SK-MEL-2 melanoma
OVCAR-4 ovarian = system: OVCAR-4 ovarian
OVCAR-8 ovarian = system: OVCAR-8 ovarian
DU-145 prostate = system: DU-145 prostate
SF-295 CNS = system: SF-295 CNS
SR leukemia = system: SR leukemia
UACC-257 melanoma = system: UACC-257 melanoma
U251 CNS = system: U251 CNS
HL-60(TB) leukemia = system: HL-60(TB) leukemia
786-0 renal = system: 786-0 renal
MCF7 breast = system: MCF7 breast
EKVX NSCLC = system: EKVX NSCLC
HCC-2998 colon = system: HCC-2998 colon
SK-MEL-28 melanoma = system: SK-MEL-28 melanoma
UACC-62 melanoma = system: UACC-62 melanoma
HOP-62 NSCLC = system: HOP-62 NSCLC
HCT-15 colon = system: HCT-15 colon
CAKI-1 renal = system: CAKI-1 renal
OVCAR-5 ovarian = system: OVCAR-5 ovarian
UO-31 renal = system: UO-31 renal
ACHN renal = system: ACHN renal
SW-620 colon = system: SW-620 colon
A498 renal = system: A498 renal
HOP-92 NSCLC = system: HOP-92 NSCLC
HS 578T breast = system: HS 578T breast
HCT-116 colon = system: HCT-116 colon
PC-3 prostate = system: PC-3 prostate
COLO 205 colon = system: COLO 205 colon
OVCAR-3 ovarian = system: OVCAR-3 ovarian
RPMI-8226 leukemia = system: RPMI-8226 leukemia
MOLT-4 leukemia = system: MOLT-4 leukemia
HT29 colon = system: HT29 colon
M14 melanoma = system: M14 melanoma
K-562 leukemia = system: K-562 leukemia

COc1ccccc1Nc1nnc(-c2c[nH]c3ccccc23)o1
GI50 (NCI-H23 lung): 1.89 µM | TGI (NCI-H23 lung): 16.6 µM | GI50 (MDA-MB-468 breast): 0.644 µM | TGI (MDA-MB-468 breast): 3.37 µM | GI50 (SK-MEL-5 melanoma): 2.02 µM | TGI (SK-MEL-5 melanoma): 5.81 µM | GI50 (BT-549 breast): 3.07 µM | TGI (BT-549 breast): 26 µM | GI50 (KM12 colon): 2.33 µM | TGI (KM12 colon): 16.5 µM | GI50 (SNB-19 CNS): 3.14 µM | TGI (SNB-19 CNS): > 100 µM | GI50 (SN12C renal): 3.01 µM | TGI (SN12C renal): 16.4 µM | GI50 (MALME-3M melanoma): 0.816 µM | TGI (MALME-3M melanoma): 15 µM | GI50 (MDA-MB-231 breast): 2.91 µM | TGI (MDA-MB-231 breast): 24.6 µM | GI50 (TK-10 renal): 7.28 µM | TGI (TK-10 renal): > 100 µM | GI50 (LOX IMVI melanoma): 2.21 µM | TGI (LOX IMVI melanoma): 18.2 µM | GI50 (IGROV1 ovarian): 0.682 µM | TGI (IGROV1 ovarian): 37.9 µM | GI50 (SF-268 CNS): 3.77 µM | TGI (SF-268 CNS): > 100 µM | GI50 (T-47D breast): 2.87 µM | TGI (T-47D breast): 25 µM | GI50 (NCI-H226 lung): 4.69 µM | TGI (NCI-H226 lung): > 100 µM | GI50 (NCI-H460 lung): 1.66 µM | TGI (NCI-H460 lung): 12.8 µM | GI50 (CCRF-CEM leukemia): 0.708 µM | TGI (CCRF-CEM leukemia): 21 µM | GI50 (A549 NSCLC): 2.99 µM | TGI (A549 NSCLC): > 100 µM | GI50 (SK-OV-3 ovarian): 1.93 µM | TGI (SK-OV-3 ovarian): 25.4 µM | GI50 (NCI-H522 lung): 0.476 µM | TGI (NCI-H522 lung): 3.68 µM | GI50 (SF-539 CNS): 1.63 µM | TGI (SF-539 CNS): 4.76 µM | GI50 (RXF 393 renal): 2.09 µM | TGI (RXF 393 renal): 8.14 µM | GI50 (SK-MEL-2 melanoma): 0.82 µM | TGI (SK-MEL-2 melanoma): 2.82 µM | GI50 (OVCAR-4 ovarian): 7.54 µM | TGI (OVCAR-4 ovarian): > 100 µM | GI50 (OVCAR-8 ovarian): 2.87 µM | TGI (OVCAR-8 ovarian): 26.2 µM | GI50 (DU-145 prostate): 4.26 µM | TGI (DU-145 prostate): > 100 µM | GI50 (SF-295 CNS): 0.857 µM | TGI (SF-295 CNS): 5.69 µM | GI50 (SR leukemia): 0.395 µM | TGI (SR leukemia): 46.4 µM | GI50 (UACC-257 melanoma): 4.95 µM | TGI (UACC-257 melanoma): 32.4 µM | GI50 (U251 CNS): 2.43 µM | TGI (U251 CNS): 16.4 µM | GI50 (HL-60(TB) leukemia): 0.625 µM | TGI (HL-60(TB) leukemia): 10.2 µM | GI50 (786-0 renal): 5.07 µM | TGI (786-0 renal): 22.7 µM | GI50 (MCF7 breast): 0.614 µM | TGI (MCF7 breast): 17.5 µM | GI50 (EKVX NSCLC): 2.63 µM | TGI (EKVX NSCLC): > 100 µM | GI50 (HCC-2998 colon): 2.55 µM | TGI (HCC-2998 colon): 16.2 µM | GI50 (SK-MEL-28 melanoma): 4.48 µM | TGI (SK-MEL-28 melanoma): 24 µM | GI50 (UACC-62 melanoma): 1.39 µM | TGI (UACC-62 melanoma): 14.5 µM | GI50 (HOP-62 NSCLC): 3.11 µM | TGI (HOP-62 NSCLC): 40 µM | GI50 (HCT-15 colon): 0.451 µM | TGI (HCT-15 colon): 21.8 µM | GI50 (CAKI-1 renal): 0.861 µM | TGI (CAKI-1 renal): 80 µM | GI50 (OVCAR-5 ovarian): 4.99 µM | TGI (OVCAR-5 ovarian): 32.2 µM | GI50 (UO-31 renal): 3.65 µM | TGI (UO-31 renal): 55 µM | GI50 (ACHN renal): 5.4 µM | TGI (ACHN renal): 45.7 µM | GI50 (SW-620 colon): 0.598 µM | TGI (SW-620 colon): > 100 µM | GI50 (A498 renal): 17.8 µM | TGI (A498 renal): 53.9 µM | GI50 (HOP-92 NSCLC): 4.55 µM | TGI (HOP-92 NSCLC): 40.6 µM | GI50 (HS 578T breast): 2.2 µM | TGI (HS 578T breast): 15.6 µM | GI50 (HCT-116 colon): 5.38 µM | TGI (HCT-116 colon): 54 µM | GI50 (PC-3 prostate): 2.86 µM | TGI (PC-3 prostate): > 100 µM | GI50 (COLO 205 colon): 1.01 µM | TGI (COLO 205 colon): 11.2 µM | GI50 (OVCAR-3 ovarian): 1.59 µM | TGI (OVCAR-3 ovarian): 9.55 µM | GI50 (RPMI-8226 leukemia): 2.25 µM | TGI (RPMI-8226 leukemia): 16.9 µM | GI50 (MOLT-4 leukemia): 0.716 µM | TGI (MOLT-4 leukemia): 14.4 µM | GI50 (HT29 colon): 0.634 µM | TGI (HT29 colon): 14.6 µM | GI50 (M14 melanoma): 0.982 µM | TGI (M14 melanoma): 22.7 µM | GI50 (K-562 leukemia): 0.343 µM | TGI (K-562 leukemia): 79.3 µM
